Measurements from paper PMC6972607, “L‐Fucose prevention of renal ischaemia/reperfusion injury in Mice” (The FASEB Journal, 2019).

Biological target: T1, collectin-11 (CL-11, CL-K1) (Homo sapiens, UniProt Q9BWP8)
T1 construct: gene COLEC11; recombinant homo-oligomer generated by expression of the CL-11 cDNA (isoform a)
Assay: competition ELISA, rCL-11 binding to immobilised yeast invertase

T1 sequence (Q9BWP8 26-271): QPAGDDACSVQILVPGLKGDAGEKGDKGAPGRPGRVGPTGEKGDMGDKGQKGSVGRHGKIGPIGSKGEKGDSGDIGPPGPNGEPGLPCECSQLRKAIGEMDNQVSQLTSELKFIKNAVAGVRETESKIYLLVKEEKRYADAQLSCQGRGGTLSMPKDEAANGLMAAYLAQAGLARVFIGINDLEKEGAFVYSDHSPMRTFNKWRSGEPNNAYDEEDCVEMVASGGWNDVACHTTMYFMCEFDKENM

| SMILES | IC50 [mM] |
| --- | --- |
| OC[C@H]1OC(O)[C@@H](O)[C@@H](O)[C@@H]1O (stereo partly drawn) [D-mannose] | 11.8 |
| C[C@@H]1OC(O)[C@@H](O)[C@H](O)[C@@H]1O (stereo partly drawn) [L-fucose] | 12.1 |
